From US7511123B2, “Immuno-interactive fragments of the alpha-C subunit of inhibin” (Prince Henry's Institute of Medical Research, priority 1999, dated 2009)

What was measured:
[1] = test system: As #1989; assay: RIA (Assay 2): competition with iodinated inhibin for As #1989; format: binding, rabbit; conditions: for As#1989 ED50: 50% fall in binding of iodinated inhibin; for ED50 values As#1989: non-biotinylated peptides, hr-inhibin A as standard
Text: (§1) This assay was used to determine which peptides compete with iodinated 30 kDa inhibin for As #41, #128 and #1989 (used in the original inhibin RIA, Lapphorn et al., 1989, supra) in a RIA format. This assay identifies those peptides that bind to inhibin-binding antibodies in the antiserum and provides a stricter affinity and specificity assessment in identifying the appropriate epitopes than that found with Assay 1. The competition between peptide and hr-inhibin (used as the standard) was assessed from their ED50 values. The RIA consisted of the competition of iodinated inhibin and either hr-inhibin reference preparation, individual peptides or pools from the 4 peptide regions, with As #41, #128 and in some instances, As #1989. The peptides/inhibin/iodinated inhibin and antisera (at a prescribed dilution) were incubated overnight at 4° C. using standard methodologies. The antibody-bound iodinated inhibin was immunoprecipitated with the addition of an anti-sheep IgG serum raised in goats and the radioactivity was measured in a gamma counter. The concentration of peptide that gives a 50% fall in binding of iodinated inhibin (ED50) was determined and this value was used to give a measure of the affinity of the peptide for the antiserum. This methodology consisted of determining the ED50 of the peptide in the RIA using iodinated human recombinant inhibin as tracer with either As #41, As #128 or As #1989 and graded doses of either hr-inhibin or peptide as described in Example 2.

[2] = test system: As #41; assay: Competitive 2-site assay (Assay 3), approach (b); format: binding, sheep; set-up: key to #41 2-site competitive assay Assay 3: +++++ major contribution; + minor contribution
Text: (§2) This assay was developed to establish the relative importance of the individual peptides and peptide pools (identified as epitopes in Assays 1 and 2) in the sandwich antibody format used in the IFMA with As #128 as capture antibody and As #41 as detection antibody. Two approaches (a and b) were considered, Approach (a) explores the cross-reaction of peptides with inhibin for the immobilized As #128 while Approach (b) assesses their cross-reaction with inhibin for As #41.
Approach (b). In this approach, the competition of peptides with the As #41 antiserum using the sandwich antibody format was assessed. Hr-Inhibin was initially incubated with the As #128 coated wells for 1 hour at room temperature. The biotinylated peptide pools and/or individual peptides were incubated together with iodinated As #41 for 1 hour and then added to the inhibin bound As #128 coated plates and incubated for 2 hours at room temperature. Plates were then washed to remove any unbound material and the resulting activity was measured in the gamma counter.

[3] = test system: As #128; assay: RIA (Assay 2): competition with iodinated inhibin for As #128; format: binding, sheep; conditions: for As#128 ED50: biotinylated peptides, 50% fall in binding of iodinated inhibin; for ED50 values As#128: non-biotinylated peptides, hr-inhibin A as standard
Text: as §1

[4] = test system: As #41; assay: RIA (Assay 2): competition with iodinated inhibin for As #41; format: binding, sheep; conditions: for As#41 ED50: biotinylated peptides, 50% fall in binding of iodinated inhibin; for ED50 values As#41: non-biotinylated peptides, hr-inhibin A as standard
Text: as §1

[5] = test system: As #128; assay: Solid phase assay (Assay 1): biotinylated peptides binding to As #128; set-up: species or system sheep; key: +++++ major contribution; + minor contribution; conditions: relative contribution
Protocol: (§3) This assay is a broad screen of the binding of the 31 biotinylated peptides to As #41 and #128 as recommended by Chiron Mimotopes.
(§4) The biotinylated peptides were initially bound to streptavidin-coated 96-well plates (2 hours at room temperature), antiserum #41 or #128 was then added (2 hours room temperature) to bind to the peptides. Detection of antiserum binding was assessed by a further incubation with an anti-ovine IgG serum labeled with the enzyme, horseradish peroxidase. The enzyme activity was assessed by conversion of a colorless substrate to a colored product that is detected in a spectrophotometer. The enzyme activity measured was proportional to the extent of the binding of the peptides.

[6] = test system: As #41; assay: Two-site assay design variation: biotinylated #41 pre-incubated with peptide; format: binding, sheep; conditions: non-biotinylated peptides 0.1-1.0 micromolar
Protocol: (iv) In a variation to the above design, biotinylated #41 was pre-incubated with peptide (0.1-1.0 micromolar) for 1.5 hours at room temperature and then added to the As #128 coated plate pre-bound with inhibin as for (i)-(iii). […] Combination of peptide #5 and #30 led to 74% decrease.

[7] = test system: As #128; assay: Two-site assay design: peptides pre-incubated with As #128 coated plate; format: binding, sheep; conditions: non-biotinylated peptides 0.1-1 micromolar
Protocol: On the other hand, the IFMA design is based on the total amount of inhibin bound which is a combination of both antibody affinity and concentration. In order to establish to what extent epitopes to these peptides contribute to the overall IFMA, the following two-site assay designs were used.
(i) Peptides #5, #20 and #30 (0, 0.1-1 micromolar) were incubated with the As #128 coated plate for 1.5 hours at RT and the wells washed. The highest dose of peptide used was saturating.
(ii) Hr-Inhibin was then added as a saturating or near saturating dose to the As #128 coated plate and incubated for 2 hours at room temperature and the plate washed.
(iii) Biotinylated As #41 was added to the above wells and incubated for 2 hours at RT. Plates were then washed and counted.

[8] = test system: As#128 and/or As#41; assay: Inhibin IFMA with pre-immunoabsorption of antisera by peptides; format: binding, sheep
Text: This IFMA is used in the measurement of inhibin in serum from women with ovarian cancer and is presented at this juncture as a reference to the following procedures. The IFMA is a sandwich antibody assay in 96-well microtiter plates. The capture antiserum is As #128 and the labeled antiserum As #41, both raised in sheep to the alpha subunit of human inhibin. Sheep As #128 was also boosted with human recombinant 30-kDa inhibin. The microtiter plates were coated with a caprylic acid IgG cut of antiserum #128. Inhibin standard and serum samples were added and incubated for 2 hours at room temperature. A biotinylated antiserum (As #41) which has been immunopurified by absorption to a column of bovine (alpha)C subunit fusion protein (as previously described, Robertson et al., 1997, supra) followed by elution with a glycine (pH 2.5) buffer, was added to bind to the antibody-bound inhibin (2-hour incubation at room temperature). Fluorescently (Eu) labeled-streptavidin that has a high affinity for biotin is added (30 minutes at room temperature) and the Eu-bound streptavidin is counted in a time-resolved fluorimeter. The Eu measured is proportional to the inhibin bound by the two antisera.
As another approach, the competition of combinations of peptides at a maximum saturating dose was assessed in the IFMA (FIGS. 7-9). […] This suppression in binding provides a measure of the contribution of that particular epitope to the assay.

[9] = test system: As #128; assay: Competitive 2-site assay (Assay 3), approach (a); format: binding, sheep; set-up: key: +++++ major contribution; + minor contribution; conditions: relative contribution
Text: as §2
Approach (a). The biotinylated peptide pools and/or individual peptides at various concentrations, in combination with a fixed concentration of hr-inhibin, were incubated for 2 hours with As #128-coated plates. The plates were then washed to remove any unbound material. Iodinated As #41 was then added to bind to the bound hr-inhibin, the plates washed and the bound radioactivity was measured in a gamma counter. The counts measured were proportional to the amount of hr-inhibin bound to both antisera. The possibility that a peptide contained two epitopes capable of linking As #128 and #41 was assessed in the absence of added hr-inhibin.

[10] = test system: PO-14; assay: Solid phase binding of Set 2 peptides to PO-14; set-up: species or system mouse; key: +++; ΦΦΦ strong effect; +, Φ weak effect; conditions: Set 2 biotinylated peptides 24 micromoles/L
Protocol: (§5) The binding of the 41 biotinylated peptides as set forth in Table 7 (peptide set 2) to the mouse monoclonal antibodies (PO# series) was assessed as follows:
(§6) a) Assay 1 (solid phase assay). The assay was undertaken as outlined in assay 1 of Example 2. Biotinylated peptides (24 micromoles/L) were initially bound to streptavidin-coated plates. Mab (at an appropriate dilution to give a detectable response, 1:1000, 1:10000 dilution of the culture medium) was then added and incubated for 1.5 hr. The amount of bound Mab was determined using horseradish peroxidase-bound anti-mouse IgG serum and enzyme activity detected at 450-630 nm using an ELISA plate reader.

[11] = test system: PO-12; assay: RIA of Set 2 peptides with PO-12; format: binding, mouse; set-up: key: ΦΦΦ strong effect; +, Φ weak effect; a) limited binding; conditions: Set 2 biotinylated peptides 0.8 and 0.08 micromoles/L
Protocol: (§7) The binding of the 41 biotinylated peptides as set forth in Table 7 (peptide set 2) to the mouse monoclonal antibodies (PO# series) was assessed as follows: b) Assay 2 (radioimrnunoassay, RIA) using iodinated human inhibin A as tracer. Mabs (at an appropriate dilution, see above) were incubated with iodinated human recombinant inhibin in the presence of biotinylated peptides (0.8 and 0.08 micromoles/L final concentration) overnight at room temperature.

[12] = test system: PO-12; assay: Solid phase binding of Set 2 peptides to PO-12; set-up: species or system mouse; key: +++; ΦΦΦ strong effect; +, Φ weak effect; conditions: Set 2 biotinylated peptides 24 micromoles/L
Protocol: as §5, §6

[13] = test system: PO-14; assay: RIA of Set 2 peptides with PO-14; format: binding, mouse; conditions: Set 2 biotinylated peptides 0.8 and 0.08 micromoles/L
Protocol: as §7

[14] = test system: PO-14; assay: RIA of Set 2 peptides with PO-14; format: binding, mouse; set-up: key: ΦΦΦ strong effect; +, Φ weak effect; a) limited binding; conditions: Set 2 biotinylated peptides 0.8 and 0.08 micromoles/L
Protocol: as §7

[15] = test system: PO-22; assay: Solid phase binding of Set 2 peptides to PO-22; set-up: species or system mouse; key: +++; ΦΦΦ strong effect; +, Φ weak effect; conditions: Set 2 biotinylated peptides 24 micromoles/L
Protocol: as §5, §6

[16] = test system: PO-6; assay: Solid phase binding of Set 2 peptides to PO-6; set-up: species or system mouse; key: +++; ΦΦΦ strong effect; +, Φ weak effect; conditions: Set 2 biotinylated peptides 24 micromoles/L
Protocol: as §5, §6

[17] = test system: R1; assay: Solid phase binding of Set 2 peptides to R1; set-up: species or system mouse; key: +++; ΦΦΦ strong effect; +, Φ weak effect; conditions: Set 2 biotinylated peptides 24 micromoles/L
Protocol: as §5, §6

[18] = test system: PO-22; assay: RIA of Set 2 peptides with PO-22; format: binding, mouse; set-up: key: ΦΦΦ strong effect; +, Φ weak effect; a) limited binding; conditions: Set 2 biotinylated peptides 0.8 and 0.08 micromoles/L
Protocol: as §7

[19] = test system: As #41; assay: Solid phase assay (Assay 1): biotinylated peptides binding to As #41; set-up: species or system sheep; key: +++++ major contribution; + minor contribution; conditions: relative contribution
Protocol: as §3, §4

[20] = test system: R1; assay: RIA of Set 2 peptides with R1; format: binding, mouse; set-up: key: ΦΦΦ strong effect; +, Φ weak effect; a) limited binding; conditions: Set 2 biotinylated peptides 0.8 and 0.08 micromoles/L
Protocol: as §7

Substance | As#1989 ED50 ([1]; biotinylated peptides) | As#128 ED50 [3] | As#41 ED50 [4] | PO-14 SPB [10] | PO-12 RIA [11] | PO-12 SPB [12] | further results
SGSG ETVPNLLTQHCACI [Peptide 33] | >2.5 µM | 2.5 µM | 4 µM | – | – | – | #41 2-site competitive assay Assay 3 ([2]; relative contribution): +
SGSG PNLSLPVPGAPPTP [Peptide 20] | >2.5 µM | 0.02 µM | 3.6 µM | – | – | – | #128 Antibody screen Assay 1 [5]: +; inhibition with biotinylated #41 pre-incubated with peptide [6]: no inhibition; ED50 values As#1989 [1]: >5 µM; suppression in binding with As #128 [7]: 23%; % suppression at 2ng inhibin ([8]; As#128 coating antibody pre-absorbed with peptide(s), As#41 label: buffer): 13%; ED50 values As#128 [3]: 0.15 µM; #128 2-site competitive assay Assay 3 [9]: +; ED50 values As#41 [4]: >5 µM
SGSG TPAQPYSLLPGAQP [Peptide 23] | >2.5 µM | 0.5 µM | 6.2 µM | +++ | ΦΦΦ | +++ | PO-14 RIA [13]: ΦΦ
SGSG LPGAQPCCAALPGT [Peptide 25] | >2.5 µM | 2 µM | 5 µM | +++ | ΦΦΦ | +++ | PO-14 RIA [14]: ΦΦΦ
SGSG PYSLLPGAQPCCAA [Peptide 24] | >2.5 µM | 0.9 µM | 6.2 µM | +++ | ΦΦΦ | +++ | PO-14 RIA [14]: ΦΦΦ
SGSG RTTSDGGYSFKYET [Peptide 30] | <0.01 µM | 0.6 µM | 2.5 µM | – | – | – | inhibition with biotinylated #41 pre-incubated with peptide [6]: 25-30%; ED50 with As #1989 ([1]; biotinylated peptides): < 0.01 µM; affinity to rabbit antiserum #1989 ([1]; in words): high affinity; ED50 values As#1989 [1]: 2.5 µM; suppression in binding with As #128 [7]: no suppression at all; blocking of As #41 binding to the inhibin-As#128 complex ([2]; biotinylated peptide pools or peptides incubated with iodinated As #41): 50%; % suppression at 2ng inhibin ([8]; As#41 label pre-absorbed with peptide, As#128 coating antibody: buffer): 28%; ED50 values As#128 [3]: >5 µM; ED50 values As#41 [4]: >5 µM
SGSG MSWPWSPSALRLLQ [Peptide 4] | >2.5 µM | 3.8 µM | 1.3 µM | – | – | – | #128 Antibody screen Assay 1 [5]: +; PO-22 SPB [15]: +++; PO-6 SPB [16]: +++; R1 SPB [17]: +; #128 2-site competitive assay Assay 3 [9]: +; PO-22 RIA [18]: ΦΦΦ
SGSG QPCCAALPGTMRPL [Peptide 26] | >2.5 µM | 0.625 µM | 1 µM | +++ | ΦΦΦ | +++ | PO-14 RIA [14]: ΦΦΦ
SGSG GTMRPLHVRTTSDG [Peptide 28] | >2.5 µM | 0.625 µM | 4 µM | – | – | – | #41 Antibody screen Assay 1 [19]: +
SGSG STPLMSWPWSPSAL [Peptide 3] | >2.5 µM | 38 µM | – | – | – | – | PO-22 SPB [15]: +++; R1 RIA [20]: ΦΦΦ; PO-6 SPB [16]: +++; R1 SPB [17]: +++; PO-22 RIA [18]: ΦΦΦ
SGSG DGGYSFKYETVPNL [Peptide 31] | >2.5 µM | 1.4 µM | 2.4 µM | – | – | – | #41 Antibody screen Assay 1 [19]: +
